In article PMC6281413, “Inhibition of breast cancer metastasis to the lungs with UBS109” (Oncotarget, 2018):
Values joined by “and” are separate entries in the source; they are usually repeats but may differ in a detail not shown here. Equal values may be shown once. “Also recorded” adds a separate entry of the source. Read-outs that look alike come from different tables or passages of the source.

Tests used:
[1] = system: human pancreatic cancer cells MiaPaca-2, ASPC-1, PT45P1 and PT45P1/asTF+; set-up: method as in doi:10.14319/ijcto.32.19; conditions: cited from earlier work; for ranking of the cytotoxic activities: four human pancreatic cancer cell lines
[2] = system: NCI-60 cancer cell line panel; set-up: method as in PMID 15210154, PMID 15711178, PMID 16722634; conditions: mean, read-out: mean growth inhibitory concentration GI50; cited from earlier work
[3] = system: MDA-MB-231 xenografts in the lungs; assay: breast cancer lung metastasis (colonization) model, MDA-MB-231 cells injected into the tail vein; type: in vivo, athymic nude mice; conditions: for Lung weight (breast tumor nodules): n=4, ± S.D., vehicle control 296.6 ± 18.8
Experimental: The effect of UBS109 administration on lung metastasis was examined in mice bearing MDA-MB-231 xenografts in the lungs. Animals were administered therapeutic regimens of UBS109 by i.p. once/day 5 days/week (M-F) for 5 weeks, in the following groups: control vehicle, UBS109 at 5 mg/kg in vehicle, and UBS109 15 mg/kg in vehicle (n = 4). […] The cancer cells were mainly found in the lungs and some other sites. […] Treatment with UBS109 15 mg/kg appears the most efficacious in inhibiting tumors (lung colonies) (Figures 2 and 3). […] Lung weight was used to assess the breast cancer colony load present in the lungs of each mouse, since it is difficult to accurately count all colonies outside and inside in each lung.
Female athymic nude mice (nu/nu, Harlan Sprague-Dawley strain; 5-6 weeks old) were housed in a pathogen-free facility. All procedures and protocols were approved by the Institutional Animal Care and Use Committee at Emory University. Mice were randomized into […]: normal group (no tumor cells injected), lung metastasis model group (vehicle control), and two UBS109-treated groups with different dosages, 5 and 15 mg/kg body weight, 4 mice in each group.
Athymic nude mice were housed in a pathogen-free facility and were intravenously injected into the tail vein with breast cancer MDA-MB-231 bone metastatic cells (10^6 cells/mouse) to result in lung metastasis (colonization). One week following injection, mice were randomized to receive either vehicle (0.5% carboxymethyl cellulose sodium [CMC] with 10% DMSO in sterile water) or drug (UBS109). The agents (vehicle, UBS109 at 5 or 15 mg/kg body weight) were administered intraperitoneally (i.p.) daily 5 days per week for 5 weeks (n = 4 mice/regimen). CMC was dissolved in distilled water and sterilized by autoclaving. Due to chemical instability, a stock solution of the drugs was made fresh each time, by weighing out 100 mg UBS109 and dissolving it in 1 mL of 100% DMSO by briefly heating before making the appropriate dilution. […] Body weights were measured once a week.

[4] = body weight / toxicity during treatment in the lung metastasis model; type: in vivo, athymic nude mice
Experimental: Athymic nude mice were housed in a pathogen-free facility and were intravenously injected into the tail vein with breast cancer MDA-MB-231 bone metastatic cells (10^6 cells/mouse) to result in lung metastasis (colonization). One week following injection, mice were randomized to receive either vehicle (0.5% carboxymethyl cellulose sodium [CMC] with 10% DMSO in sterile water) or drug (UBS109). The agents (vehicle, UBS109 at 5 or 15 mg/kg body weight) were administered intraperitoneally (i.p.) daily 5 days per week for 5 weeks (n = 4 mice/regimen). CMC was dissolved in distilled water and sterilized by autoclaving. Due to chemical instability, a stock solution of the drugs was made fresh each time, by weighing out 100 mg UBS109 and dissolving it in 1 mL of 100% DMSO by briefly heating before making the appropriate dilution. After UBS109 administration for 5 weeks, animals were sacrificed. The lungs containing breast cancer tumors were weighed and fixed in 10% neutralized formalin for 48 h. Paraffin embedded blocks were stained with hematoxylin and eosin (H&E). Body weights were measured once a week.

[5] = pharmacokinetic study, single i.p. dose, plasma by LC/MS/MS; type: in vivo, CD-1 mice; conditions: 15 mg/kg i.p.
Experimental: Pharmacokinetic analysis of the plasma concentration time curve for each animal was conducted using noncompartmental analysis with WinNonlin® Version 6.3.0 (Figure 5). […] This is approximately […] in the blood of mice and, given the molecular weight of UBS109 of 291.4, yields a blood concentration of approximately 1.5 μM.
A pharmacokinetic (PK) study was performed by Agilux Laboratories Inc./Charles River laboratories, Inc. (Worcester, MA, USA). Male CD-1 mice (Harlan Laboratories, Inc.) weighing 28 ± 1.6 grams were used for the PK study. Three mice were administered a single i.p. dose of UBS109 15 mg/kg in 10% DMSO and 90% PBS.
A blood sample (approximately 35–40 μL) was taken from each animal from the tail vein at 4 different time points after dosing: 0.25, 0.5, 2, and 8 h (n=3 mice/time point). Samples were collected into K2EDTA-coated Microvette tubes (Sarstedt) on wet ice (protected from light) and processed to plasma by centrifugation (3500 rpm at 5°C) within 1 hour of collection. All plasma samples were transferred into separate 96 well plates (matrix tubes) and stored at −80°C until analysis for the parent drug by Agilux Laboratories/Charles River laboratories, Inc. via LC/MS/MS.
The plasma samples (10 μL) were deproteinated with acetonitrile (80 μL) and analyzed by LC/MS/MS using an internal standard (carbutamide) spiking technique with an AB SCIEX 6500+ system equipped with a Waters Acuity BEH C18 UPLC column (2 × 50 mm, 1.7 μm) operating at 55°C with mobile phases A (95:5:0.1 H2O:CAN:FA) and B (50:50:0.1 CAN:MeOH:FA). The corresponding time courses were 1.40 and 2.10 min (%MPB 95; Flow 0.800 mL/min) followed by a 2.80 min Strong Needle Rinse (25:25:25:25:0.1 (v:v:v:v:v) MeOH:ACN:IPA:H2O:NH4OH). The verified research grade bioanalytical assay method to determine the plasma concentrations of UBS109 (RGA Level 1) employed an API 6500+ electrospray, positive ion MS/MS device. The mean, standard deviation, and %CV of plasma levels were determined using Microsoft® Office Excel 2007. Mean concentration data was plotted against time to create plasma concentration versus time profiles at each dosage (Table 2 and Figure 5).
Pharmacokinetic analysis of the plasma concentration time curve for each animal was conducted using noncompartmental analysis with WinNonlin® Version 6.3.0. Areas under the curve (AUC) were estimated using the linear trapezoidal rule. The first order rate constant (Lambda Z) associated with the terminal (log-linear) elimination phase was estimated using linear regression of at least three nonzero concentrations versus time points in the late phase of the log concentration versus time profile. The half-life (t.) was calculated as ln(2)/Lambda Z. Nominal times were used in all the data analyses.

[6] = system: MDA-MB-231 breast cancer cells; set-up: method as in PMID 24628271; conditions: at 1.25 μM, in vitro; cited from earlier work
[7] = set-up: method as in PMID 24628271, PMID 23933177, doi:10.14319/ijcto.32.19; conditions: cited from earlier work

NC1(c2ccc(-c3nc4ccn5c(=O)[nH]nc5c4cc3-c3ccccc3)cc2)CCC1 [Akt inhibitor]
ranking of the cytotoxic activities [1]: UBS109> EF24> HSP90 inhibitor> gemcitabine> Akt inhibitor> p38 MAPK inhibitor

O=C1/C(=C/c2ccccc2F)CNC/C1=C\c1ccccc1F [EF24, 3,5-bis(2-flurobenzylidene)piperidin-4-one]
GI50 [2]: 0.7 µM
ranking of the cytotoxic activities [1]: UBS109> EF24> HSP90 inhibitor> gemcitabine> Akt inhibitor> p38 MAPK inhibitor

CC(C)c1cc(-c2n[nH]c(=O)n2-c2ccc3c(ccn3C)c2)c(O)cc1O [HSP90 inhibitor]
ranking of the cytotoxic activities [1]: UBS109> EF24> HSP90 inhibitor> gemcitabine> Akt inhibitor> p38 MAPK inhibitor

CN1CC(=Cc2ccccn2)C(=O)C(=Cc2ccccn2)C1 [UBS109, 3,5-bis(2-pyridinylmethylidene)-1-methyl-4-piperidone]
effect on lung metastasis/colonization (tumor deposition in the lungs by weight) ([3]; 15 mg/kg i.p. once daily 5 days/week for 5 weeks): significantly reduced; also recorded: significantly inhibited; also recorded: inhibited lung metastases
Lung weight (breast tumor nodules) ([3]; UBS109 5 mg/kg i.p. once daily 5 days/week for 5 weeks): 285.9 ± 11.2 mg
Lung weight (breast tumor nodules) ([3]; UBS109 15 mg/kg i.p. once daily 5 days/week for 5 weeks, p<0.05 vs control): 226.6 ± 19.8 mg
toxicity judged from body weight ([4]; 5 or 15 mg/kg body weight i.p. once daily 5 days a week for 5 weeks): not toxic
body weight during treatment ([4]; 5 or 15 mg/kg i.p. once daily 5 days/week for 5 weeks, versus controls): did not lose weight; also recorded: remained the same as in the other groups
AUClast ([5]; individual mouse): 813 ng·h/mL and 116 ng·h/mL and 1061 ng·h/mL
Cmax ([5]; individual mouse): 398 ng/mL and 623 ng/mL and 835 ng/mL
Extrapolated (AUC) ([5]; individual mouse): 6.15%
Extrapolated (AUC) ([5]; mean (only mouse 2 reported)): 6.15%
T ½ ([5]; mean of mice (only mouse 2 reported)): 1.97 h
approximate concentration in the blood of mice ([5]; restated from Cmax): approximately 1.5 ng/ml
Cmax ([5]; male, CD-1, mouse, plasma, ip, 15 mg/kg, at 15 min post injection, read-out: maximal blood concentration (Cmax)): 432 ± 387 ng/mL
AUC(0-t) ([5]; male, CD-1, mouse, plasma, ip, 15 mg/kg, mean of 3 mice): 664 ng·h/mL
Cmax ([5]; male, CD-1, mouse, plasma, ip, 15 mg/kg, mean of 3 mice, read-out: Cmax): 619 ng/mL
Tmax ([5]; male, CD-1, mouse, plasma, ip, read-out: time of maximal blood concentration post injection (converted)): 0.25 h
AUC(0-inf) ([5]; male, CD-1, plasma, ip, individual mouse): 124 ng·h/mL
half-life ([5]; male, CD-1, plasma, ip, individual mouse, read-out: T ½ (converted)): 1.97 h
cell killing of MDA-MB-231 cells [6]: 100%
inhibition of all four pancreatic cancer cell lines ([1]; at 0.25 μM): 100%
ranking of the cytotoxic activities [1]: UBS109> EF24> HSP90 inhibitor> gemcitabine> Akt inhibitor> p38 MAPK inhibitor
water solubility relative to other MACs [7]: most water soluble among the MACs

N.N.[Cl][Pt][Cl] [cisplatin]
GI50 [2]: 9.5 µM

Nc1ccn([C@@H]2O[C@H](CO)[C@@H](O)C2(F)F)c(=O)n1 [gemcitabine]
ranking of the cytotoxic activities [1]: UBS109> EF24> HSP90 inhibitor> gemcitabine> Akt inhibitor> p38 MAPK inhibitor
maximal killing of pancreatic cancer cells ([1]; up to 20 μM used in the test): above 50%

diferuloylmethane [curcumin]
GI50 [2]: 7.3 µM
